{"source": "patent EP0067084B1", "about": "“Eye-lotion compositions for the treatment of conjunctivitis and keratitis” (Laboratoires P.O.S. Société Anonyme dite:, priority 1981, dated 1982)", "key": {"[1]": {"assay": "Solubility (description of the product)", "assay_type": "physicochemical"}, "chien": {"system": "chien", "assay": "Chronic toxicity in the dog, oral, 13 weeks", "assay_type": "in vivo", "settings": "35 mg/Kg/jour, 13 semaines"}, "lapin": {"system": "lapin", "assay": "Chronic toxicity in the rabbit, ocular instillation, 13 weeks", "assay_type": "in vivo", "settings": "instillation oculaire, 4 doses par jour, solution à 0,9 g (pour 100 ml), 13 semaines"}}, "data": [{"smiles": "CCCCCCCCCCCCOCCCN", "note": "[Lopa, amino-1 dodécyloxy-3 propane]", "values": [{"measurement": "solubility in water", "setting": "[1]; eau", "result": "insoluble dans l'eau"}, {"measurement": "solubility in organic solvents", "setting": "[1]; méthanol, chloroforme, acétone, benzène", "result": "soluble dans divers solvants organique"}, {"measurement": "toxicité locale et/ou systématique", "setting": "chien", "result": "aucune toxicité locale et/ou systématique"}, {"measurement": "toxicité locale et/ou systématique", "setting": "lapin", "result": "aucune toxicité locale et/ou systématique"}]}]}
